The nature of data set [1]: Core loading of phototherapeutic agent into micelles. The class given is physicochemical. To be noted: poly(p-hydroxystyrene) core; shown previously. As for the experimental part: Core loading was achieved by addition of MP-3397 stock solution (in DMF) into aqueous micelle solution followed by removal of organic solvent through dialysis. Alternatively, MP-3397 stock solution incubated with block copolymer (both in DMF) underwent co-assembly upon addition of water followed by dialysis. In an example, poly(p-hydroxystyrene) core achieved maximum of 5 wt % core loading whereas polystyrene core achieved ca. 15 wt %.

For the next data set, the system named is KB cells. The experiment in a line: EST-1 cell viability assay using KB cells (cell cytotoxicity). Format: cell-based. To be noted: Homo sapiens. The method, then: Table 3 provides 1050 data for the EST-1 cell viability assay using KB cells with 2 hour treatment with the particles described above. […] HPLC and MS analyses were in agreement with the determination of PTX concentration.
Table 5 provides results of cell cytotoxicity 1050 data for the EST-1 cell viability assay using KB cells with the particles described above. “ND” means not determined.

Data set [2] in a line: DOX release experiments from dialysis cassette, Higuchi fit and f1/f2 profile comparison. Format: physicochemical. As to conditions: at either pH value (5.0 or 7.4). As for the experimental part: General procedure for the DOX release experiments: To a presoaked dialysis cassette (Slide-A-Lyzer, 10 kDa MWCO, Pierce Biotechnology, Rockford Ill., USA) was added ca. 7 mL of the DOX-loaded SCK or SC-rod solution. The cassette was stirred in a beaker containing 4 L of 5 mM PBS at pH 5.0 or 7.4 and 37° C. for a period of 52 hrs. Samples (ca. 1 mL) were removed from the cassette at 0, 1, 2, 3, 5, 7, 9, 15, 21, 27, 39 and 52 h and analyzed by UV-vis spectroscopy (488 nm, ε=13050 M^−1 cm^−1) and injected back to the cassette immediately after the analysis. DOX release data points were then fitted to a third order polynomial equation.
DOX-SCR or DOX-SCK (ca. 4 mL) was transferred to a presoaked dialysis cassette (Slide-A-Lyzer, 10 kDa MWCO, Pierce Biotechnology, Rockford Ill., USA). […] Samples (ca. 1.5 mL) were removed from the cassette at 0, 1, 2, 4, 6, 9, 12, 18, 24, 30, 40, 50 and 60 h, analyzed by UV-vis (488 nm, 6=12500 M^−1cm^−1 determined by a calibration curve in PBS), and then returned to the cassette. […]
To further quantitatively understand the differences and similarities in DOX release profiles, model-independent methods were used to calculate f1, the difference factor, and f2, the similarity factor (F. O. Costa, J. J. S. Sousa, A. Pais, S. J. Formosinho, J. Controlled Release 2003, 89, 199; J. W. Moore, H. H. Flanner, Pharm. Tech. 1996, 20, 67.): […]

Where two headings read alike, the source gives them in different places.

`Oc1c(I)cc(I)c(-c2c(I)cc(I)c(O)c2I)c1I` [MP-4089]: the core loading in data set [1] came to 15 wt %.
Consider `CC(=O)O[C@H]1C(=O)[C@@]2(C)[C@H]([C@H](OC(=O)c3ccccc3)[C@]3(O)C[C@H](OC(=O)[C@H](O)[C@@H](NC(=O)c4ccccc4)c4ccccc4)C(C)=C1C3(C)C)[C@]1(OC(C)=O)CO[C@@H]1C[C@@H]2O` [Paclitaxel, paclitaxel], for which the IC50 with KB cells (2 hr treatment, 60 nm particles, read-out: PTX 2 hr IC50) worked out at 50 nM; in the data set on KB cells (72 hr, 60 nm particles, read-out: PTX 72 hr IC50) it was 7 nM; in the data set on KB cells (after one day of loading, 10 nm vs. 20 nm particles, read-out: 2 hr IC50), 45 nM; with KB cells (after two weeks of loading, 10 nm vs. 20 nm particles, read-out: 72 hr IC50), 2 nM.
On to doxorubicin [free DOX], for which the “time to complete release from the dialysis cassette” value in data set [2] is at most 4 h. Further, the “DOX release from the dialysis cassette” value in data set [2] (in 3 h) is given as 95%.

The values above are taken from patent publication US9662387B2, “Functional, cross-linked nanostructures for tandem optical imaging and therapy” (Mallinckrodt LLC, priority 2010, dated 2017).
